Legend:
[1] = human, in vivo; cited from earlier work
[2] = Clearance rate constant of labelled tracer by external ambulatory renal monitor; format: in vivo; conditions: patient in intensive care unit, initial (moderately decreased renal function)
Experimental: A more detailed description of an example of a renal function monitor follows, in which clearance of a radiolabelled injected substance was measured according to the detected radiation according to the invention. The performance of the apparatus was tested by comparison with results obtained using standard techniques.
Data collection was performed using a battery-operated, pocket-size lightweight data logger having 32K total RAM (Tattletale, Model V, Onset Computer Corp., N. Falmouth, Mass.). The detector was a 16 mm diameter×2 mm thick cadmium-telluride (Cd-Te) detector (Radiation Monitoring Devices, Watertown, Mass.) connected to a preamplifier and a lower level discriminator. […]
The usual diet was not altered. Weight and height were measured soon after arrival at the treatment facility. […]
To determine the value of the invention for monitoring of renal function, two patients at risk of ARF with serum creatinine ≥2 mg/dl were monitored before, during and after an angiographic procedure. […] The rate constant, as measured according to the invention, decreased in this patient from 2.85×10^-3 min^-1 to 0.2×10^-3 min^-1; and the serum creatinine in this patient increased from 2.4 to 2.8 mg/dl over the succeeding 12 hours.
The rate of clearance of ^99m Tc-DTPA was also monitored in a patient in an intensive care unit. […]

## O=C([O-])CN(CCN(CC(=O)[O-])CC(=O)[O-])CCN(CC(=O)[O-])CC(=O)[O-].[99Tc+4] [^99m Tc-DTPA]
[1]
  rate constant (Normal): 0.0065 min⁻¹
[2]
  rate constant: 0.0035 min⁻¹

— patent publication US5647363A, “Ambulatory clearance function monitor” (The General Hospital Corporation, priority 1994, dated 1997)
